Measured values as given in patent EP2951180B1, “2,6,7,8 SUBSTITUTED PURINES AS HDM2 INHIBITORS” (Merck Sharp & Dohme Corp., priority 2013, dated 2014).
Where two headings read alike, the source gives them in different places.

Biological target: T1, HDM2 (Homo sapiens, UniProt Q00987)
T1 construct: Thioredoxin (N); made in house; host or cells: E. coli strain BL21(DE3)Rosetta
Assay: HDM2 FRET assay (inhibition of binding of FITC labeled p53-pocket peptide to HDM2)
Settings: for inhibition at 1 µM: read-out: inh. at 1000 nM (FRET); for IC50: read-out: FRET IC50
How it was run: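 Compounds were tested in 10-point serial dilution against 0.5 nM recombinant HDM2 binding 3 nM fluorescein-labeled p53-pocket peptide. Detection used 0.25 nM terbium cryptate anti-6xHis antibody in PBS buffer containing 0.01% BSA and 0.01% Tween-20.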

[1] = 0.5 nM HDM2 (residues 17 to 125), 3nM peptide, two hour incubation at room temperature

T1 sequence (Q00987 17-125): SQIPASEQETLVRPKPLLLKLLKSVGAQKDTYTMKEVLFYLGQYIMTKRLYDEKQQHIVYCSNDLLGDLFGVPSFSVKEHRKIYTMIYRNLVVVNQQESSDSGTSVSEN

Structure (SMILES): Cc1cccc(-c2nc3nc(C(=O)O)nc(N(C)C(C)C4CC4)c3n2Cc2ccc(C(F)(F)F)cc2)c1 (centres unmarked) [Example 6.88, 6-[(1-cyclopropylethyl)(methyl)amino]-8-(3-methylphenyl)-7-[4-(trifluoromethyl)benzyl]-7H-purine-2-carboxylic acid]
- inhibition at 1 µM: 33%

Structure (SMILES): COc1ncc(Cl)cc1-c1nc(-c2n[nH]c(=O)o2)nc2nc(N3CCOC[C@H]3c3ccccc3)n(C[C@H]3CC[C@H](C)CC3)c12 [Example 16.157, 5-{6-(5-chloro-2-methoxypyridin-3-yl)-7-[(trans-4-methylcyclohexyl)methyl]-8-[(3R)-3-phenylmorpholin-4-yl]-7H-purin-2-yl} - 1,3,4-oxadiazol-2(3H)-one]
- IC50 [1]: 0.882 nM

Structure (SMILES): C[C@H]1CC[C@H](Cn2c(C3(c4ccccc4)CCC3)nc3nc(-c4noc(=O)[nH]4)nc(-c4cncc(Cl)c4)c32)CC1 [Example 20.11, 3-[6-(5-chloropyridin-3-yl)-7-[(trans-4-methylcyclohexyl)methyl]-8-(1-phenylcyclobutyl)-7H-purin-2-yl]-1,2,4-oxadiazol-5(4H)-one]
- IC50 (Table 20): 3.39 nM

Structure (SMILES): C[C@@H](Nc1nc(C(N)=O)nc2nc(N3CCN(S(C)(=O)=O)C[C@H]3c3ccccc3)n(C[C@H]3CC[C@H](C)CC3)c12)C1CCC1 [Example 17.12, 6-{[(1R)-1-cyclobutylethyl]amino}-7-[(trans-4-methylcyclohexyl)methyl]-8-[(2R)-4-(methylsulfonyl)-2-phenylpiperazin-1-yl]-7H-purine-2-carboxamide]
- IC50 (Table 17.2): 4.6 nM

Structure (SMILES): CC1CN(c2nc(-c3noc(=O)[nH]3)nc3nc(N4CCOC[C@H]4c4ccccc4)n(C[C@H]4CC[C@H](C)CC4)c23)CCO1 (stereo partly drawn) [Example 26.3, 3-{7-[(trans-4-methylcyclohexyl)methyl]-6-(2-methylmorpholin-4-yl)-8-[(3R)-3-phenylmorpholin-4-yl]-7H-purin-2-yl}-1,2,4-oxadiazol-5(4H)-one]
- IC50 (Table 26): 14.5 nM

Structure (SMILES): Cc1cccc(-c2nc3nc(C(=O)O)nc(N[C@H](C)C(C)C)c3n2Cc2ccc(C(F)(F)F)cc2)c1 [Example 6.48, 6-{[(1R)-1,2-dimethylpropyl]amino}-8-(3-methylphenyl)-7-[4-(trifluoromethyl)benzyl]-7H-purine-2-carboxylic acid]
- IC50 (Table 6): 145 nM

Structure (SMILES): CCCC1CCCN1c1nc(C(=O)O)nc2nc(-c3cccc(C)c3)n(Cc3ccc(C(F)(F)F)cc3)c12 (centres unmarked) [Example 6.86, 8-(3-methylphenyl)-6-(2-propylpyrrolidin-1-yl)-7-[4-(trifluoromethyl)benzyl]-7H-purine-2-carboxylic acid]
- IC50 (Table 6): 754 nM

Structure (SMILES): C[C@@H]1COC[C@H](C)N1c1nc2nc(-c3noc(=O)[nH]3)nc(-c3cccc(Cl)c3)c2n1C[C@H]1CC[C@H](C)CC1 [Example 16.67, 3-{6-(3-chlorophenyl)-8-[(3R,5S)-3,5-dimethylmorpholin-4-yl]-7-[(trans-4-methylcyclohexyl)methyl]-7H-purin-2-yl}-1,2,4-oxadiazol-5(4H)-one]
- IC50 [1]: 6.36 nM

Structure (SMILES): C[C@@H](Nc1nc(NC(C)(C)C(=O)O)nc2nc(N3CCOC[C@H]3c3ccccc3)n(C[C@H]3CC[C@H](C)CC3)c12)C1CCC1 [Example 13.5, N-(6-{[(1R)-1-cyclobutylethyl]amino}-7-[(trans-4-methylcyclohexyl)methyl]-8-[(3R)-3-phenylmorpholin-4-yl]-7H-purin-2-yl)-2-methylalanine]
- IC50 [1]: 260 nM

Structure (SMILES): CC(Nc1nc2nc(-c3noc(=O)[nH]3)nc(N[C@H](C)C3CCC3)c2n1C[C@H]1CC[C@H](C)CC1)c1cncnc1 (stereo partly drawn) [Example 11.92, 3-(6-{[(1R)-1-cyclobutylethyl]amino}-7-[(trans-4-methylcyclohexyl)methyl]-8-[(1-pyrimidin-5-ylethyl)amino]-7H-purin-2-yl)-1,2,4-oxadiazol-5(2H)-one]
- IC50 (Table 11): 11.7 nM

Structure (SMILES): C[C@H]1CC[C@H](Cn2c(N3CCOC[C@H]3c3ccccc3)nc3nc(-c4n[nH]c(=O)o4)nc(-c4cncc(Cl)c4)c32)CC1 [Example 16.35, 5-{6-(5-chloropyridin-3-yl)-7-[(trans-4-methylcyclohexyl)methyl]-8-[(3R)-3-phenylmorpholin-4-yl]-7H-purin-2-yl} -1,3,4-oxadiazol-2(3H)-one]
- IC50 [1]: 0.824 nM

Structure (SMILES): Cc1ccc(C2CCCCN2c2nc3nc(-c4noc(=O)[nH]4)nc(N[C@H](C)C4CCC4)c3n2C[C@H]2CC[C@H](C)CC2)o1 (stereo partly drawn) [Example 11.78, 3-(6-{[(1R)-1-cyclobutylethyl]amino}-7-[(trans-4-methylcyclohexyl)methyl]-8-[2-(5-methylfuran-2-yl)piperidin-1-yl]-7H-purin-2-yl)-1,2,4-oxadiazol-5(4H)-one]
- IC50 (Table 11): 37.1 nM

Structure (SMILES): Cc1cccc(Nc2nc(C(=O)O)nc3nc(-c4cccc(C)c4)n(Cc4ccc(C(F)(F)F)cc4)c23)c1 [Example 6.94, 8-(3-methylphenyl)-6-[(3-methylphenyl)amino]-7-[4-(trifluoromethyl)benzyl]-7H-purine-2-carboxylic acid]
- inhibition at 1 µM: 32%

Structure (SMILES): C[C@@H]1[C@@H](C)OCCN1c1nc2nc(-c3n[nH]c(=O)o3)nc(-c3cncc(Cl)c3)c2n1C[C@H]1CC[C@H](C)CC1 [Example 16.140, 5-{6-(5-chloropyridin-3-yl)-8-[(2R,3R)-2,3-dimethylmorpholin-4-yl]-7-[(trans-4-methylcyclohexyl)methyl]-7H-purin-2-yl}-1,3,4-oxadiazol-2(3H)-one]
- IC50 [1]: 9.45 nM

Structure (SMILES): C[C@@H](Nc1nc(-c2noc(=O)[nH]2)nc2nc(N(C)CC(C)(C)C)n(Cc3ccc(C(F)(F)F)cc3)c12)C1CCC1 [Example 9.84, 3-(6-{[(1R)-1-cyclobutylethyl]amino}-8-[(2,2-dimethylpropyl)(methyl)amino]-7-[4-(trifluoromethyl)benzyl]-7H-purin-2-yl)-1,2,4-oxadiazol-5(4H)-one]
- IC50 (Table 9): 13.3 nM

Structure (SMILES): C[C@@H](Nc1nc(C(=O)O)nc2nc(C(=O)NC3CCCCC3)n(Cc3ccc(C(F)(F)F)cc3)c12)C1CCC1 [Example 10.19, (R)-6-((1-Cyclobutylethyl)amino)-8-(cyclohexylcarbamoyl)-7-(4-(trifluoromethyl)benzyl)-7H-purine-2-carboxylic acid]
- IC50 (Table 10): 68 nM

Structure (SMILES): C[C@H]1CC[C@H](Cn2c(N3CCOCC34CCC4)nc3nc(-c4noc(=O)[nH]4)nc(-c4cncc(Cl)c4)c32)CC1 [Example 16.144, 3-[6-(5-chloropyridin-3-yl)-7-[(trans-4-methylcyclohexyl)methyl]-8-(8-oxa-5-azaspiro[3.5]non-5-yl)-7H-purin-2-yl]-1,2,4-oxadiazol-5(4H)-one]
- IC50 [1]: 19.1 nM

Structure (SMILES): C[C@@H](Nc1nc(C(=O)O)nc2nc(N3CCCCC3c3cccnc3)n(C[C@H]3CC[C@H](C)CC3)c12)C1CCC1 (stereo partly drawn) [Example 11.19, 6-{[(1R)-1-cyclobutylethyl]amino}-7-[(trans-4-methylcyclohexyl)methyl]-8-(2-pyridin-3-ylpiperidin-1-yl)-7H-purine-2-carboxylic acid]
- IC50 (Table 11): 0.895 nM

Structure (SMILES): CC1CCCC(c2nc(-c3n[nH]c(=O)o3)nc3nc(N4CCOC[C@H]4c4ccccc4)n(C[C@H]4CC[C@H](C)CC4)c23)C1 (stereo partly drawn) [Example 16.170, 5-{6-(3-methylcyclohexyl)-7-[(trans-4-methylcyclohexyl)methyl]-8-[(3R)-3-phenylmorpholin-4-yl]-7H-purin-2-yl} - 1,3,4-oxadiazol-2(3H)-one]
- IC50 [1]: 8.3 nM

Structure (SMILES): CC(C)[S+]([O-])c1nc(N[C@H](C)C2CCC2)c2c(n1)nc(N1CCOC[C@H]1c1ccccc1)n2C[C@H]1CC[C@H](C)CC1 (stereo partly drawn) [Example 14.8, N-[(1R)-1-cyclobutylethyl]-7-[(trans-4-methylcyclohexyl)methyl]-2-[(1-methylethyl)sulfinyl]-8-[(3R)-3-phenylmorpholin-4-yl]-7H-purin-6-amine]
- IC50 [1]: 15.5 nM

Structure (SMILES): CC[C@H](Nc1nc2nc(-c3noc(=O)[nH]3)nc(-c3cccc(Cl)c3)c2n1C[C@H]1CC[C@H](C)CC1)c1cccc(F)c1 [Example 16.64, 3-{6-(3-chlorophenyl)-8-{[(1S)-1-(3-fluorophenyl)propyl]amino}-7-[(trans-4-methylcyclohexyl)methyl]-7H-purin-2-yl}-1,2,4-oxadiazol-5(4H)-one]
- IC50 [1]: 3.16 nM

Structure (SMILES): CC1CCCCN1c1nc2nc(C(=O)O)nc(N[C@H](C)C3CCC3)c2n1C[C@H]1CC[C@H](C)CC1 (stereo partly drawn) [Example 11.29, 6-{[(1R)-1-cyclobutylethyl]amino}-7-[(trans-4-methylcyclohexyl)methyl]-8-(2-methylpiperidin-1-yl)-7H-purine-2-carboxylic acid]
- IC50 (Table 11): 2.23 nM

Structure (SMILES): Cc1cccc(-c2nc3nc(C(=O)O)nc(N[C@H](C4CC4)C(F)(F)F)c3n2Cc2ccc(C(F)(F)F)cc2)c1 [Example 6.52, 6-{[(1R)-1-cyclopropyl-2,2,2-trifluoroethyl]amino}-8-(3-methylphenyl)-7-[4-(trifluoromethyl)benzyl]-7H-purine-2-carboxylic acid]
- IC50 (Table 6): 319 nM

Structure (SMILES): C[C@H]1CC[C@H](Cn2c(C3(c4ccccc4)CCC3)nc3nc(-c4n[nH]c(=O)o4)nc(-c4cc(Cl)c[n+]([O-])c4)c32)CC1 [Example 20.13, 5-[6-(5-chloro-1-oxidopyridin-3-yl)-7-[(trans-4-methylcyclohexyl)methyl]-8-(1-phenylcyclobutyl)-7H-purin-2-yl]-1,3,4-oxadiazol-2(3H)-one]
- IC50 (Table 20): 22.8 nM

Structure (SMILES): C[C@@H](Nc1nc(C(=O)O)nc2nc(N3CCCC[C@H]3c3ccccc3)n(Cc3ccc(C(F)(F)F)cc3)c12)C1CCC1 [Example 9.63, 6-{[(1R)-1-cyclobutylethyl]amino}-8-[(2S)-2-phenylpiperidin-1-yl]-7-[4-(trifluoromethyl)benzyl]-7H-purine-2-carboxylic acid]
- IC50 (Table 9): 3.06 nM

Structure (SMILES): CC1CCN(c2nc3nc(-c4noc(=O)[nH]4)nc(N[C@H](C)C4CCC4)c3n2C[C@H]2CC[C@H](C)CC2)C(c2ccccc2)C1 (single isomer, unassigned) [Example 11.69]
- IC50 (Table 11): 17.3 nM
